Like-named read-outs stand apart in the source and are kept apart here.
Assays:
hSERT = hSERT (Homo sapiens, UniProt P31645); experiment: Dissociation assay with [3H]-citalopram and hSERT membrane preparations; assay type: binding; conditions: for Max. Stability (maximum stabilization factor): estimated upper plateau of sigmoidal response curve: how many folds the off-rate of bound radioligand from SERT can be attenuated, N/A = No activity
Method: Dulbecco's modified Eagle's medium, fetal bovine serum, trypsin, and penicillin/streptomycin were purchased from Invitrogen. Cell culture flasks were from NUNC. MicroScint-20 scintillation mixture was from Packard. [^3H]-Citalopram (85 Ci/mmol) was a gift from H. Lundbeck A/S (Valby, Denmark). Fugene-6 transfection reagent was from Roche Molecular Biochemicals. All chemicals are commercially available. Stock solutions of the allosteric ligands were prepared as 100 mM in EtOH.
The pcDNA3 plasmid vector containing the hSERT gene was used for transfection.
17.5 μl Fugene-6 (Roche Molecular Biochemicals) were mixed with 280 μl Dulbecco's modified Eagle's medium, and incubated at room temperature for 5 minutes. 10 μg of hSERT plasmid were added and the mixture was further incubated at least 15 minutes. […] The cells were plated at 35% confluency in a 150 mm dish, and grown at 37° C. for 64 h. Prior to harvesting the dish was rinsed in PBS. Cells were harvested with a cell scraper in buffer 1 (50 mM Tris-base, 150 mM NaCl, 20 mM EDTA, pH 7.4). After centrifugation (3000 g at 4° C. for 10 mins), cells were suspended and homogenized with an IKA Ultra-Turrax from Rose Scientific Ltd (Edmonton, Alberta, Canada) for 20 s in buffer 1. Membranes were pelleted by ultracentrifugation (12 000 g at 4° C. for 15 min) and homogenization was repeated in buffer 1. Finally, after ultracentrifugation (12000 g, 4° C., 15 min) membranes were resuspended in 1 ml buffer 3 (50 mM Tris-base, 120 mM NaCl, 5 mM KCl, pH 7.4) and stored at −80° C.
Dissociation Assay with [^3H]-Citalopram and Membrane Preparations.
SERT-[^3H]-citalopram complex was formed by incubating hSERT membrane preparation and radioligand in buffer 3 during a 60 min incubation at 4° C. Radioligand was present at a concentration 10 times the Kd value. The time kinetic of dissociation was followed by adding 10 μL complex solution to 250 μL buffer 3 in 96-well plates and incubating subsequently for increasing time intervals at RT. Reactions were terminated by filtration through GF/C glass-fibre filters (Unifilter, Perkin Elmer Life Sciences), preincubated with 40 μl 0.5% polyethyleneimine, using a Pachard Bell cell harvester, and subsequently washed three times with water. Filters were soaked in 40 μl Microscint 20 scintillation liquid (Pachard Bell). Bound radioactivity was determined by direct counting of plates using a Packard Bell microplate scintillation counter. Dissociation curves were obtained by plotting residual binding vs. time of dissociation.
The concentrations of allosteric compound in the dissociation buffer range from 400-0.2 μM.
The relative off-rate is expressed as the off-rate of the radioligand at a given concentration of allosteric compound, normalized to the off-rate of radioligand in the absence of allosteric compound.
The maximum stabilization factor is defined as the estimated upper plateau of the sigmoidal response curve, and describes how many folds the off-rate of bound radioligand from SERT can be attenuated in the presence of increasing concentrations of allosteric compound in the dissociation buffer.

Balb/cJ male mice = experiment: Forced swim test (FST); assay type: in vivo; conditions: intraperitoneally 30 min prior to FST, seven minutes scoring period
Method: FIGS. 5A and 5B. Effect of allosteric compound in the mouse forced swim test (FST). Drugs were dissolved in 10% β-2-hydroxy-cyclodextrine. Male BalB/c were injected intraperitoneally with 500 μl SSRI alone or in combination with allosteric compound 30 min prior to FST (n=8). Vehicle treated animals each received 500 μl 10% 13-2-hydroxy-cyclodextrine. […] FIG. 5B depicts the effect of 5 mg/(kg bodyweight) of escitalopram alone and in combination with 15 mg/(kg bodyweight) of the allosteric compound of Example 1 (denoted ALN10 in figure). […]
FST is a behavioral model widely used to assess antidepressant-like activity in mice Porsholt et al, 1978). […] The total duration of immobility within a seven minute test period, is the main parameter measured. […]
Male BalB/c were injected intraperitoneally with 500 μl SSRI alone or in combination with allosteric compound 30 min prior to the swimming session (n=6). […] Swim sessions were videofilmed and analyzed by a blind scorer using stop watch, or by analyzing software (Ethovision, Noldus). The parameter measured was amount of time spent in a state of immobility, including small movements to keep balance and head over water. […]
FIGS. 5A and 5B gives the results from the forced swim test for the compound of Example 1. […] The dose of SSRI was chosen to be the highest sub-active concentration determined. […]

[1] = concentration of allosteric compound inducing 50% attenuation of the off-rate of the radioligand from SERT, 10 μM fluoxetine in dissociation buffer, read-out: EC50

hSERT, sequence (P31645 whole entry): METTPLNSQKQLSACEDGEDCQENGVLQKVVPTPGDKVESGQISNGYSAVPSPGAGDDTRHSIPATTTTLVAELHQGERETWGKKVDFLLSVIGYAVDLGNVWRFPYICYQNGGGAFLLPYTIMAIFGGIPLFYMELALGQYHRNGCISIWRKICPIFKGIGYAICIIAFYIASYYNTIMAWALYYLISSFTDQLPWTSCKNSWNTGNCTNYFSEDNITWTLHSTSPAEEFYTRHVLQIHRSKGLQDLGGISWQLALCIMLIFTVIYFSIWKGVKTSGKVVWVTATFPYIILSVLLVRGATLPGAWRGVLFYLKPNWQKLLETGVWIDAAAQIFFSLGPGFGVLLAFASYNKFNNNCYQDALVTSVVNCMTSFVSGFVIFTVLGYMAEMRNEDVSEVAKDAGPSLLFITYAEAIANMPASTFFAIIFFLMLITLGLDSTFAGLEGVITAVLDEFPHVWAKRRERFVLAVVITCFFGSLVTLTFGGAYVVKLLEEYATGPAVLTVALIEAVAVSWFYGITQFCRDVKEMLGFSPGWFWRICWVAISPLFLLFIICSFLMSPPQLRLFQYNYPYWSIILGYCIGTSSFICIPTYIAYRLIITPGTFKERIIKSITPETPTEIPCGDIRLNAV

Row | SMILES | EC50 (hSERT; [1]) [µM] | Max. Stability (maximum stabilization factor) (hSERT) | immobility time in FST, combination with escitalopram (Balb/cJ male mice; 15 mg/kg allosteric compound + 5 mg/kg (subactive) escitalopram) | immobility time in FST, combination with fluoxetine (Balb/cJ male mice; 15 mg/kg allosteric compound + 5 mg/kg (subactive) fluoxetine) | EC50 (hSERT) [µM]
1 | COC(=O)c1cccc2ccccc12 [Example 2, 1-Naphthoic Acid Methyl Ester] | 29 | 7.4 | – | – | –
2 | CCCOC(=O)c1cccc2ccccc12 [Example 3, 1-Naphthoic Acid Propyl Ester] | 2.1 | 17 | – | – | –
3 | CC(C)OC(=O)c1cccc2ccccc12 [Example 4, 1-Naphthoic Acid Isopropyl Ester] | 9.8 | 16 | – | – | –
4 | O=C(OCCO)c1cccc2ccccc12 [Example 6, 1-Naphthoic Acid 2-Hydroxyethyl Ester] | 14.5 | 20 | – | – | –
5 | C=CCOC(=O)c1cccc2ccccc12 [Example 8, 1-Naphthoic Acid 2-Propenyl Ester] | 16 | 11 | – | – | –
6 | C#CCOC(=O)c1cccc2ccccc12 [Example 9, 1-Naphthoic Acid 2-Propynyl Ester] | 15 | 13 | – | – | –
7 | CSc1cccc2ccccc12 [Example 12, Methyl-[1]Naphthyl Sulphide] | 17 | 10 | – | – | –
8 | CCSc1cccc2ccccc12 [Example 13, Ethyl-[1]Naphthyl Sulphide] | 9.4 | 8.3 | – | – | –
9 | CCCCSc1cccc2ccccc12 [Example 14, 1-Butyl-Sulfanyl-1-Naphthalene] | 12 | 3.6 | – | – | –
10 | OCCSc1cccc2ccccc12 [Example 15, 2-Hydroxyethyl-1-Naphthyl Sulphide] | 4.6 | 10.2 | – | – | –
11 | C=CCSc1cccc2ccccc12 [Example 17] | 3.2 | 6.3 | – | – | –
12 | CCOC(=O)n1ccc2ccc(C)cc21 [Example 27, 6-Methyl-Indole-1-Carboxylic Acid Ethyl Ester] | 34 | 15 | – | – | –
13 | O=C(OC1CCCC1)c1cccc2ccccc12 [Example 32, 1-Naphthoic Acid Cyclopentyl Ester] | 9.6 | 10 | – | – | –
14 | Sc1cccc2ccccc12 [reference compound] | > 1000 | – | – | – | –
15 | CCOS(=O)(=O)c1cccc2ccccc12 [reference compound] | – | 3.1 | – | – | 120

The remaining compounds from weak to strong by EC50 (hSERT; [1]), led by results:

Row | EC50 (hSERT; [1]) [µM] | Max. Stability (maximum stabilization factor) (hSERT) | SMILES | immobility time in FST, combination with escitalopram (Balb/cJ male mice; 15 mg/kg allosteric compound + 5 mg/kg (subactive) escitalopram) | immobility time in FST, combination with fluoxetine (Balb/cJ male mice; 15 mg/kg allosteric compound + 5 mg/kg (subactive) fluoxetine) | EC50 (hSERT) [µM]
16 | 74 | 1.8 | CCNC(=O)c1cccc2ccccc12 [Example 10, 1-Naphthoic Acid Ethylamide] | – | – | –
17 | 61 | 5.4 | CCOC(=O)n1nnc2ccccc21 [Example 29, Benzotriazole-1-Carboxylic Acid Ethyl Ester] | – | – | –
18 | 46 | 3.9 | CCCOc1cccc2ccccc12 [Example 21, 1-Propoxy-Naphthalene] | – | – | –
19 | 31 | 8.8 | CCOC(=O)n1ccc2ccc(Cl)cc21 [Example 28, 6-Chloro-Indole-1-Carboxylic Acid Ethyl Ester] | – | – | –
20 | 5 | 6 | CCOC(=O)n1cc(C)c2ccccc21 [Example 35, 3-Methyl-Indole-1-Carboxylic Acid Ethyl Ester] | – | – | –
21 | 4.7 | 6.4 | CCCSc1cccc2ccccc12 [Example 11, 1-Propyl-Sulfanyl-1-Naphthalene] | – | – | –
22 | 3.3 | 9.1 | CCOC(=O)c1cccc2ccccc12 [Example 1, 1-Naphthoic Acid Ethyl Ester] | significantly reduced immobility time | significantly reduced immobility time | –
23 | 1.3 | 9 | CCOC(=O)n1ccc2ccccc21 [Example 24, Indole-1-Carboxylic Acid Ethyl Ester] | – | – | –
24 | 1.2 | 10.3 | C#CCSc1cccc2ccccc12 [Example 16, 3-Ethynyl-Sulfanyl-1-Naphthalene] | – | – | –
